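Compound exposure: 48 hours, 5 concentrations, 96-well plates. TGI marks complete inhibition of growth.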
Tests used:
Test in all cases: inhibition of tumour cell growth, NCI panel, 48 h
SN12C renal = system: SN12C renal
DU-145 prostate = system: DU-145 prostate
NCI-H460 lung = system: NCI-H460 lung
CAKI-1 renal = system: CAKI-1 renal
TK-10 renal = system: TK-10 renal
EKVX NSCLC = system: EKVX NSCLC
SF-539 CNS = system: SF-539 CNS
MDA-MB-231 breast = system: MDA-MB-231 breast
HT29 colon = system: HT29 colon
K-562 leukemia = system: K-562 leukemia
A549 NSCLC = system: A549 NSCLC
786-0 renal = system: 786-0 renal
IGROV1 ovarian = system: IGROV1 ovarian
HCT-116 colon = system: HCT-116 colon
LOX IMVI melanoma = system: LOX IMVI melanoma

Q: Which results are given for `S=c1[nH]n2c(COc3cc(Cl)c(OCc4nnc5sc(=S)[nH]n45)cc3Cl)nnc2s1`?
A: TGI (SN12C renal): > 100 µM; TGI (DU-145 prostate): > 100 µM; TGI (NCI-H460 lung): > 100 µM; TGI (CAKI-1 renal): > 100 µM; TGI (TK-10 renal): > 100 µM; TGI (EKVX NSCLC): > 100 µM; TGI (SF-539 CNS): > 100 µM; TGI (MDA-MB-231 breast): > 100 µM; TGI (HT29 colon): > 100 µM; TGI (K-562 leukemia): > 100 µM; TGI (A549 NSCLC): > 100 µM; TGI (786-0 renal): > 100 µM; TGI (IGROV1 ovarian): > 100 µM; TGI (HCT-116 colon): > 100 µM; TGI (LOX IMVI melanoma): > 100 µM

Q: `COc1cc2c(cc1OC)C(=O)/C(=C/c1ccc(N(C)C)cc1)CC2` was tested. Which TGI (SN12C renal) did it give?
A: Its TGI is over 10 µM.

Q: And the TGI (DU-145 prostate)?
A: The TGI was over 10 µM.

Q: What about the TGI (NCI-H460 lung) of the same compound?
A: Its TGI is over 10 µM.

Q: What about the TGI (CAKI-1 renal) of the same compound?
A: The TGI was over 10 µM.

Q: What about the TGI (TK-10 renal) of the same compound?
A: The TGI was over 10 µM.

Q: What about the TGI (EKVX NSCLC) of the same compound?
A: Its TGI is over 10 µM.

Q: And the TGI (SF-539 CNS)?
A: The TGI was over 10 µM.

Q: And the TGI (MDA-MB-231 breast)?
A: The TGI was over 10 µM.

Q: And the TGI (HT29 colon)?
A: The TGI was over 10 µM.

Q: What about the TGI (K-562 leukemia) of the same compound?
A: Its TGI is over 10 µM.

Q: And the TGI (A549 NSCLC)?
A: Its TGI is over 10 µM.

Q: And the TGI (786-0 renal)?
A: Its TGI is over 10 µM.

Q: What about the TGI (IGROV1 ovarian) of the same compound?
A: The TGI was over 10 µM.

Q: And the TGI (HCT-116 colon)?
A: The TGI was over 10 µM.

Q: What about the TGI (LOX IMVI melanoma) of the same compound?
A: The TGI was over 10 µM.

Q: How did the TGI (SN12C renal) turn out when `C[n+]1c2ccccc2c(C(=O)Nc2ccc(S(=O)(=O)Nc3ncccn3)cc2)c2ccccc21` was run?
A: The TGI was over 100 µM.

Q: And the TGI (DU-145 prostate)?
A: Its TGI is over 100 µM.

Q: And the TGI (NCI-H460 lung)?
A: The TGI was over 100 µM.

Q: And the TGI (CAKI-1 renal)?
A: Its TGI is over 100 µM.

Q: What about the TGI (TK-10 renal) of the same compound?
A: Its TGI is over 100 µM.

Q: What about the TGI (EKVX NSCLC) of the same compound?
A: Its TGI is over 100 µM.

Q: What about the TGI (SF-539 CNS) of the same compound?
A: Its TGI is over 100 µM.

Q: What about the TGI (MDA-MB-231 breast) of the same compound?
A: Its TGI is over 100 µM.

Q: What about the TGI (HT29 colon) of the same compound?
A: The TGI was over 100 µM.

Q: And the TGI (K-562 leukemia)?
A: The TGI was over 100 µM.

Q: What about the TGI (A549 NSCLC) of the same compound?
A: Its TGI is over 100 µM.

Q: What about the TGI (786-0 renal) of the same compound?
A: Its TGI is over 100 µM.

Q: And the TGI (IGROV1 ovarian)?
A: Its TGI is over 100 µM.

Q: What about the TGI (HCT-116 colon) of the same compound?
A: The TGI was over 100 µM.

Q: What about the TGI (LOX IMVI melanoma) of the same compound?
A: The TGI was over 100 µM.

Source: PubChem BioAssay (NCI)
